Source: article PMC9631117, “Epitope length variants balance protective immune responses and viral escape in HIV-1 infection” (Cell Reports, 2022)
“Also recorded” adds a separate entry of the source.

Columns and labels:
[1] = test system: PBMCs isolated from HLA-B*27:05+ patients with chronic HIV-1 infection; experiment: Ex vivo IFN-γ ELISpot; format: cell-based, human; conditions: PBMCs of ten HLA-B*27:05+ patients, result in words
[2] = molecular target: HLA-B*27:05 (Homo sapiens, UniProt P01889, D138H/D201E/E176V/E204Q/G107R/H137Y/K202T/N104T/N87E/Q56L/Q94K/R106L/R155S/R180L/S101D/S121N/S48T/Y140D/Y33H/Y91C); experiment: Refolding of epitope-form peptides with HLA-B*27:05 heavy chain and β2m (heterotrimer formation); format: binding; conditions: rapid dilution refold, size exclusion, mass spectrometry, result in words
Source text: HLA-B^∗27:05 heavy chain and β2M proteins were expressed and purified as described previously ([Burgess, 2009]; [Tenzer et al., 2009]) and refolded with peptide using a rapid dilution method ([Tsumoto et al., 2003]). Heterotrimeric complexes were purified via size exclusion using a HiLoad 26/600 Superdex 75 pg column fitted to an AKTA Purifier FPLC System (GE Healthcare). Eluent fractions corresponding to absorbance peaks were examined via SDS-PAGE. Heterotrimeric complexes were then purified again via size exclusion using a Superdex 75 10/300 GL column fitted to an AKTA Purifier FPLC System (GE Healthcare). Correctly refolded heterotrimers were concentrated to > 10 mg/mL for crystallization trials using Amicon Ultra-0.5 Centrifugal Filter Units with Ultracel-10 Membranes (Merck Millipore). Optimal protein concentrations were determined for each complex using a PCT Pre-Crystallization Test (Hampton Research). […] Crystallization was carried out using the sitting-drop vapor-diffusion method. Briefly, crystallization screen reagents (Hampton Research) were dispensed into a CrystalQuick 96 Well Sitting Drop Plate (Greiner) using a Hydra eDrop II (Thermo Fisher Scientific), and 10 nL of protein was dispensed as a sitting drop in each well after mixing with 10 nL of the corresponding well buffer using a Microsys Liquid Handler (Cartesian Technologies). Crystal screens were stored at 4°C using a Protein Crystallization Imager (Formulatrix). Crystals obtained from the screens were immersed in reservoir buffer containing 20% glycerol as a cryoprotectant and vitrified at 100 K in liquid nitrogen. X-ray diffraction was carried out on beamlines at the European Synchrotron Radiation Facility, Grenoble, France (www.esrf.eu) or at the Diamond Light Source, Didcot, UK (www.diamond.ac.uk).

[3] = test system: TAP; experiment: TAP-peptide competitive binding assay; conditions: result in words; for Normalized TAP affinity relative to KK10: competitive binding, Figure 1E
[4] = test system: KK10-specific CTL clone G12C; experiment: Competition IFN-γ ELISpot with KK10-specific CTL clone G12C and T2-HLA-B*27:05 cells; format: cell-based, human; conditions: result in words; for Effect on IFN-γ release by G12C in response to KK10 at the EC50 concentration: peptide pre-incubated 30 min at 37°C with T2-HLA-B*27:05 cells at molar ratios 1-800 relative to KK10; for Inhibition of the G12C response to KK10 at the amounts produced by proteasomal digestion: comparison of competition ELISpot with the processing data
Method: G12C cells were expanded as described previously([Iversen et al., 2006]) and rested for 2 days in fresh medium supplemented with IL-2 (20 IU/mL) and IL-15 (25 ng/mL) before testing in IFN-γ ELISpot assays (Merck Millipore) ([Tenzer et al., 2009], [2014]). TAP-deficient T2 cells were transfected with HLA-B^∗27:05 to generate T2-HLA-B^∗27:05 cells ([Kuipers et al., 1996]). These cells were used in competition assays to minimize the potentially confounding effects of internally loaded peptides and other HLA class I and class II molecules. […] The EC50 concentration was determined in preliminary ELISpot assays as the concentration required to elicit half-maximal IFN-γ production ([Tenzer et al., 2009], [2014]). Samples were tested in triplicate or quadruplicate. G12C responses were expressed as spot-forming units per 10^6 cells. Standard ex vivo IFN-γ ELISpot assays were performed as described previously ([Tenzer et al., 2009], [2014]).

[5] = test system: ERAP1/2; conditions: incubation with ERAP1/2 for 140 min, Figure 1G, result in words
[6] = test system: KIR3DL1*001; experiment: KIR3DL1*001 binding assay (dextramer staining of KIR3DL1*001-transfected BA/F3 cells); conditions: peptide complexed with HLA-B*27:05 dextramer; Figure 7A; result in words
Method: Each line was stained with LIVE/DEAD Fixable Violet (Thermo Fisher Scientific). […] The parental line was used as a control for each condition. Samples were tested in duplicate.

KRWII [KI5] was tested, and the “Peptide-specific IFN-γ release (immunogenicity)” value (from here on “Peptide-specific IFN-γ release”) [1] was “poor immunogenicity”, the “Formation of heterotrimeric complexes with HLA-B*27:05 heavy chain and β2m in refolds” value (“Formation … in refolds” for short) [2] was “refolded inefficiently” and the “Formation … in refolds” value ([2]; listed as KL5) was “formation of heterotrimeric complexes”. The “Normalized TAP affinity relative to KK10” value [3] was “lowest affinities” and the “Effect on IFN-γ release by G12C in response to KK10 at the EC50 concentration” value [4] was “less striking than those of the longer minitopes”.

In the case of KRWI [KI4], the “Peptide-specific IFN-γ release” value [1] is reported as “poor immunogenicity”, the “Formation … in refolds” value [2] is reported as “formation of heterotrimeric complexes; also recorded: refolded inefficiently” and the “Normalized TAP affinity relative to KK10” value [3] is reported as “lowest affinities”. The “Effect on IFN-γ release by G12C in response to KK10 at the EC50 concentration” value [4] was “less striking than those of the longer minitopes”.

With GEIYKRWIILGLNKI [GI15] the “ERAP1/2 trimming (reduction in abundance)” value [5] was “trimmed significantly more than other epitope forms”.

For KRWIILGL [KL8], the “KIR3DL1 binding relative to KK10” value [6] was “Further reductions”, the “Peptide-specific IFN-γ release” value [1] was “Specific IFN-γ release was identified” and the “Normalized TAP affinity relative to KK10” value [3] was “exceeded that of the immunodominant HLA-B^∗57:01/B^∗5703-restricted HIV-1 epitope TW10”. For the same substance, the “TAP-adjusted production of KK10 epitope forms (predicted relative abundance in the ER)” value ([3]; proteasomal production adjusted for TAP interactions, Figure 1F) was “dominant minitope” and the “Inhibition of the G12C response to KK10 at the amounts produced by proteasomal digestion” value [4] was “more than halve the G12C response to KK10”.

KRWIIMGL [KL8-M] was tested, and the “KIR3DL1 binding relative to KK10” value [6] was “marginally increased binding to KIR3DL1”.

With KRWIIL [KL6] the “Peptide-specific IFN-γ release” value [1] was “poor immunogenicity”, the “Normalized TAP affinity relative to KK10” value [3] was “exceeded that of the immunodominant HLA-B^∗57:01/B^∗5703-restricted HIV-1 epitope TW10” and the “Inhibition of the G12C response to KK10 at the amounts produced by proteasomal digestion” value [4] was “more than halve the G12C response to KK10”.

With KRWIILG [KG7] the “Peptide-specific IFN-γ release” value [1] was “poor immunogenicity” and the “Normalized TAP affinity relative to KK10” value [3] was “exceeded that of the immunodominant HLA-B^∗57:01/B^∗5703-restricted HIV-1 epitope TW10”.
